# Data: EP1568770A2, “Pharmaceutical use of compounds which bind to a mammalian "trace amine" receptor” (priority 2000, dated 2002)
# “Also recorded” adds a separate entry of the source. Like-named read-outs stand apart in the source and are kept apart here.
# Assays:
# [1] = target: T1, rat trace amine receptor (Rattus norvegicus, UniProt Q923Y9); assay: cell-based; format: cell-based; details: for Emax: HEK293, percent of stimulation by p-tyramine, read-out: Maximal Stimulation (%±SEM)
# T1 construct: HEK293 cells stably transfected with the pcDNA3.1/V5/His-TOPO expression vector containing the full-length rat cDNA clone described above; expressed in transfected cells
# [2] = tested on: HEK 293 cells; format: cell-based, human; details: luciferase reporter; control cells transfected with pcDNA3.1
# Description: Control cells were transfected with pcDNA3.1 without the rat trace amine receptor sequences. All cells were also co-transfected with 2 additional constructs: one (elk-gal) that encoded the yeast transcription factor gal under the transcriptional control of an Elk-responsive promoter; and another encoding firefly luciferase under the transcriptional control of a gal-responsive promoter. […]
# [3] = tested on: human trace amine receptor; format: cell-based; details: luciferase reporter; HEK 293 cells transfected with H2-3pcDNA3.1
# [4] = untitled table after Table III, DRUGS, read-out: EC50
# [5] = Table III, cAMP, 1 hour at 37°C, 100 µM IBMX, read-out: EC50 (nM±SEM)
# T1 sequence (Q923Y9 whole entry): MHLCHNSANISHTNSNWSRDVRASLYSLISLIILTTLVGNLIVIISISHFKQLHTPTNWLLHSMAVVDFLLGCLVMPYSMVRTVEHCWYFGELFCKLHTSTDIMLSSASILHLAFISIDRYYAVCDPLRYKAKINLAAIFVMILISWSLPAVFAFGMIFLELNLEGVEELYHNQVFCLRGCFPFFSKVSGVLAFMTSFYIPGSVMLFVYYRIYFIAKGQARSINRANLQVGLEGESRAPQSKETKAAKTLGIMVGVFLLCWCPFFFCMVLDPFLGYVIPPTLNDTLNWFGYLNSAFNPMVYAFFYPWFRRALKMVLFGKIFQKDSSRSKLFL
Structure (SMILES),"activation of the trace amine receptor / cAMP production, in words [1]",further results
NCCCC(=O)O [GABA],not activated,
CN[C@H](C)Cc1ccccc1 [R-methamphetamine],,"EC50 [1, 4]: 236 nM"
CN1CC[C@]23c4c5ccc(O)c4O[C@H]2[C@@H](O)C=C[C@H]3[C@H]1C5 [morphine],not activated,
NCCc1c[nH]c2ccccc12 [Tryptamine],,"Emax ([1]; Table III): 90 ± 6%; EC50 [1, 5]: 309 ± 76 nM"
NCCc1ccc(O)cc1 [p-tyramine],,EC50 ([1]; read-out: EC50 (nM±SEM)): 69 ± 9 nM
COc1cc(CCN)ccc1O [3-methoxytyramine],efficacious activators,"activation of the trace amine receptor / cAMP production, in words ([1]; listed as 3-MT): potent and efficacious agonist"
NCCc1cccc(O)c1 [m-tyramine],,Emax ([1]; Table III): 74 ± 3%
"CC(C)C[C@H]1C(=O)N2CCC[C@H]2[C@]2(O)O[C@](NC(=O)[C@@H]3C=C4c5cccc6[nH]c(Br)c(c56)C[C@H]4N(C)C3)(C(C)C)C(=O)N12 [Bromocryptine, bromocriptine]",potently activate,
CCN(CC)C(=O)[C@@H]1C=C2c3cccc4[nH]cc(c34)C[C@H]2N(C)C1 [D-LSD],potently activate,
CN[C@@H](C)Cc1ccccc1 [methamphetamine],potently stimulated cAMP production,
CN1CCCC1c1cccnc1 (stereo not drawn) [nicotine],not activated,
"NCCc1c[nH]c2ccc(O)cc12 [Serotonin, 5-hydroxytryptamine]",,"fold stimulation for each potential ligand compared with cells incubated in the absence of the ligand, pcDNA3.1 [2]: 1 fold; Emax ([1]; Table III): 47 ± 9%"
"COc1cc(C(O)CN)ccc1O (stereo not drawn) [normetanephrine, 3-methoxy-β-4-dihydroxy-β-phenethlamine]",efficacious activators,
NC[C@H](O)c1ccc(O)c(O)c1 [Norepinephrine],,"fold stimulation for each potential ligand compared with cells incubated in the absence of the ligand, H2-3 pcDNA3.1 [3]: 1.69 fold; fold stimulation for each potential ligand compared with cells incubated in the absence of the ligand, pcDNA3.1 [2]: 1.3 fold"
CN1C[C@H](CNC(=O)OCc2ccccc2)C[C@@H]2c3cccc4c3c(cn4C)C[C@H]21 [metergoline],stimulate camp production,
C[C@@H](N)Cc1ccc(O)cc1 [R-OH amphetamine],,"EC50 [1, 4]: 11.3 nM"
"NCCc1ccccc1 [Phenethylamine, β-phenethylamine]",,Emax ([1]; Table III): 76 ± 16%
"CN1CC=C(c2ccccc2)CC1 [MPTP, 1-methyl-4-phenyl-1,2,3,6-tetrahydropyridine]",stimulate camp production,Emax ([1]; Table III): 93 ± 7%

Structure (SMILES),"activation of the trace amine receptor / cAMP production, in words [1]",further results
"COc1cc(CC(C)N)c(OC)cc1I (stereo not drawn) [2-amino,(1-[2,5-dimethoxy-4-iodophenyl]propane]",activate the receptor,
CCNC(C)Cc1ccccc1 (racemic) [(±)N-ethylamphetamine],substantially lower activities,
"CC(N)Cc1ccc(O)cc1 (stereo not drawn) [4-hydroxyamphetamine, α-methyl-p-tyramine]",most potent agonist,"Emax ([1]; Table III): 79 ± 2%; EC50 [1, 5]: 51 ± 12 nM"
"COc1cc(CC(=O)O)ccc1O [homovanillic acid, 3-methoxy-4-hydroxyphenylacetic acid]",no detectible activity,
"C[C@@H](CO)NC(=O)[C@@H]1C=C2c3cccc4[nH]cc(c34)C[C@H]2N(C)C1 [Ergotmetrine, ergometrine]",potently activate,
C=CCN1CCc2c(cc(O)c(O)c2Cl)C(c2ccccc2)C1 (stereo not drawn) [SKF82958],,"fold stimulation for each potential ligand compared with cells incubated in the absence of the ligand, H2-3 pcDNA3.1 [3]: 2.52 fold"
"CNCC(O)c1ccc(O)c(OC)c1 (stereo not drawn) [metanephrine, 3-methoxy-β-4-dihydroxy-N-methyl-β-phenethylamine]",efficacious activators,
NCC(O)c1ccc(O)cc1 (stereo not drawn) [Octopamine],,Emax ([1]; Table III): 102 ± 3%; EC50 ([1]; read-out: EC50 (nM±SEM)): 1300 ± 350 nM
NC1CCc2cc(O)c(O)cc2C1 (stereo not drawn) [ADTN67],,"fold stimulation for each potential ligand compared with cells incubated in the absence of the ligand, H2-3 pcDNA3.1 [3]: 1.93 fold; fold stimulation for each potential ligand compared with cells incubated in the absence of the ligand, pcDNA3.1 [2]: 0.78 fold"
CN(C)CCCN1c2ccccc2Sc2ccc(Cl)cc21 [chlorpromazine],weak agonist,
NCCc1c[nH]cn1 [histamine],not activated,
CN1C[C@H](C(=O)N[C@]2(C)O[C@@]3(O)[C@@H]4CCCN4C(=O)[C@H](Cc4ccccc4)N3C2=O)C[C@@H]2c3cccc4[nH]cc(c34)C[C@H]21 [dihydroergotamine],potently activate; also recorded: stimulate camp production,
CNCC(O)c1ccc(O)cc1 (stereo not drawn) [Synephrine],,Emax ([1]; Table III): 90 ± 2%
CNC(C)Cc1ccc2c(c1)OCO2 (racemic) [MDMA],potently stimulated cAMP production,"Emax ([1]; Table III): 65 ± 13%; EC50 [1, 5]: 1750 ± 1150 nM; EC50 [1, 4]: 179 nM"
CN1Cc2c(N)cccc2C(c2ccccc2)C1 (stereo not drawn) [nomifensine],stimulate camp production,
Cc1ccc(N(CC2=NCCN2)c2cccc(O)c2)cc1 [Phentolamine],stimulate camp production,
CCNC(C)Cc1cccc(C(F)(F)F)c1 (racemic) [(±)fenfluramine],substantially lower activities,
c1ccc(CC2=NCCN2)cc1 [Tolazoline],stimulate camp production,
